These results are taken from article PMC8080067, “Tight binding of cytochrome b5 to cytochrome P450 17A1 is a critical feature of stimulation of C21 steroid lyase activity and androgen synthesis” (The Journal of Biological Chemistry, 2021).

For orientation: Kd means the free concentration of one partner at which half of the binding sites on the other are occupied at equilibrium, for simple one-to-one binding. High values mean lower affinity, low ones higher affinity.

Experiment in all cases: Substrate-binding spectral titration (type I, ΔA388-A423)
One test has as its target T1, P450 17A1 E305G variant (Homo sapiens, UniProt P05093, E305G).
T1 sequence (P05093 1-508 E305G): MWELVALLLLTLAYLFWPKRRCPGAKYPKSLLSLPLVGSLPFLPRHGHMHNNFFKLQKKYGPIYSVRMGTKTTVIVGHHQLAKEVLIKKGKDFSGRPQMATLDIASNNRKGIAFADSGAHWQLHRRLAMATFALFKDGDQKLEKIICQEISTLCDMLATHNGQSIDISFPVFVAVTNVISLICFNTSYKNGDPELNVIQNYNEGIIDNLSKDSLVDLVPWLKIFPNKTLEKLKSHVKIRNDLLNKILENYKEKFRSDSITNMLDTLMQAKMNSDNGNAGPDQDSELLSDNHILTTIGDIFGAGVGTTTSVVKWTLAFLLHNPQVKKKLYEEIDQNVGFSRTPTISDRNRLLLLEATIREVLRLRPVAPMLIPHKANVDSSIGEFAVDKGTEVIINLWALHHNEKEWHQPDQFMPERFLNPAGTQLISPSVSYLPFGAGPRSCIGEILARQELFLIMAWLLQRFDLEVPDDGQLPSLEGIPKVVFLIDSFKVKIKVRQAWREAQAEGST
Here is the method:
(§1) The purified enzymes were diluted in 100 mM potassium phosphate buffer (pH 7.4) and divided in two 1.0-ml glass cuvettes. Spectra (350–500 nm) were recorded using an OLIS-DW2 spectrophotometer (On-Line Instrument Systems) with subsequent additions of the substrate. Differences in the absorbance between the wavelength maximum and minimum were plotted versus the substrate concentration ([44]). Kd values were calculated using nonlinear regression analysis in GraphPad Prism software (GraphPad) and the quadratic equation: Y=B+A/2E[(Kd+E+X)−(Kd+E+X)^2−4EX], set in Prism as: Y = B + (A/2) ∗ (1/E) ∗ ((Kd + E + X)-sqrt((Kd + E + X)^ˆ2 - (4 ∗ E ∗ X))).
(§2) Figure S2. […] Increasing concentrations of substrates were added to the sample and reference cuvettes in each case.

The next test deals with T2, P450 17A1 R347H variant (Homo sapiens, UniProt P05093, R347H).
T2 sequence (P05093 1-508 R347H): T1 sequence (P05093 1-508 E305G) with G305E, R347H
Here is the method: as §1, §2

Another test deals with T3, P450 17A1 R358Q variant (Homo sapiens, UniProt P05093, R358Q).
T3 sequence (P05093 1-508 R358Q): T1 sequence (P05093 1-508 E305G) with G305E, R358Q
Here is the method:
as §1, §2

A further test has as its target T4, WT P450 17A1 (Homo sapiens, UniProt P05093).
T4 sequence (P05093 1-508): T1 sequence (P05093 1-508 E305G) with G305E
Here is the method: as §1, §2

Setting [1] is: Kd of P450 17A1·substrate complex, WT, P450 1.0 µM, quadratic fit.

Substitutions are numbered along the chain they refer to. Where “and” joins values, the source holds several entries; their conditions need not be identical. Equal entries are not always repeated. Where two headings read alike, the source gives them in different places.

For the molecule `CC(=O)[C@H]1CC[C@H]2[C@@H]3CCC4=CC(=O)CC[C@]4(C)[C@H]3CC[C@]12C` [Progesterone], the Kd is 170 ± 80 nM at P450 17A1 E305G variant; 230 ± 100 nM on P450 17A1 R347H variant; 260 ± 120 nM on P450 17A1 R358Q variant; ~65 nM and 65 nM on WT P450 17A1 (setting [1]).

For `CC(=O)C1CCC2C3CC=C4C[C@@H](O)CC[C@]4(C)C3CC[C@]12C` (stereo partly drawn) [Pregnenolone], the Kd on P450 17A1 E305G variant turned out to be 260 ± 80 nM; at P450 17A1 R347H variant, 120 ± 50 nM; on P450 17A1 R358Q variant, 150 ± 60 nM; on WT P450 17A1 (setting [1]), 140 ± 60 nM.

Consider `CC(=O)[C@@]1(O)CCC2C3CC=C4C[C@@H](O)CC[C@]4(C)C3CC[C@@]21C` (stereo partly drawn) [17α-OH pregnenolone], for which the Kd at P450 17A1 E305G variant turned out to be 410 ± 180 nM; on P450 17A1 R347H variant it was 220 ± 100 nM; on P450 17A1 R358Q variant it was 260 ± 120 nM; on WT P450 17A1 it was 110 ± 50 nM.
